Three molecules from US20080181882A1, “Neurgulin 1 (NRG1) - ErbB4 signaling as a target for the treatment of schizophrenia” (The University of Pennsylvania, priority 2006, published 2008) can be followed below.

Data set [1] in a line: Serum haloperidol concentration in implanted mice. It is filed as in vivo. Particulars: CH3, mouse, other: implanted bioabsorbable polymer disc, pooled serum, mice with haloperidol implant. The protocol: (§1) Adult CH3 mice were implanted with a Medisorb bioabsorbable polymer disc (Alkermes Inc.), fabricated with haloperidol (n=7) or polymer vehicle only (n=7). These implants were previously shown to release haloperidol for at least 5 months with a calculated release rate of approximately 2 mg/kg per day. After 12 weeks of treatment, mice were sacrificed and the pooled serum haloperidol concentration was measured. Animal experiments were approved by the Institutional and Animal Care and Use Committee of the University of Pennsylvania.

In data set [2] the test system is erbB4. The data set is described as follows: NRG1-induced erbB4 activation in PFC slices of mice after chronic haloperidol treatment. It is filed as in vivo, mouse. Particulars: chronic haloperidol implant, 12 weeks. The protocol:
(A) […] slices of PFCs of control and haloperidol treated mice were incubated with or without NRG 1 for 30 min. Tissue lysates were immunoprecipitated for erbB4 and were probed with antiphosphotyrosine or anti-erbB4. (B) Densitometric analysis of erbB4 activation in (A). Graph constructed for the ratios of the intensities for pY-erbB4 over erbB4 for control and haloperidol treated mice. NRG1 induced tyrosine phosphorylation was attenuated in haloperidol treated mice (t(6)=[…]);
as §1
To assess potential confounding effects of demographic or clinical variables, the levels of NRG1 and erbB4 isoforms were assessed, as well as the activation of erbB4, ERK and AKT, for correlations with sex, age, brain pH, postmortem interval and, for the schizophrenia group, exposure to an antipsychotic drug 1 month before death. No significant correlations were found. […]

Data set [3] has as its target T1, erbB4 (Homo sapiens, UniProt Q15303).
T1 construct: Postmortem PFC tissues were gradually thawed and sliced using a McIlwain tissue chopper; from tissue; host or cells: postmortem human prefrontal cortex (Brodmann areas 9, 10 and/or 46), schizophrenic and control subjects
The data set is described as follows: NRG1 stimulation-induced erbB4 tyrosine phosphorylation in postmortem brain tissue (erbB4 IP, phosphotyrosine immunoblot). Type of data set: cell-based. The note with it: postmortem PFC tissue stimulated 37° C. 30 min; NRG1-GST or GST 200 ng/ml; NMDA 10 μM + 1 μM glycine. As for the experimental part: Postmortem PFC tissues were gradually thawed and sliced using a McIlwain tissue chopper (200 μm×200 μm×3 mm). Tissue slices ([…]) were suspended in ice-cold Krebs-Ringer solution containing 118 mM NaCl, 4.8 mM KCl, 1.3 mM CaCl2, 1.2 mM KH2 PO4, 1.2 mM MgSO4, 25 mM NaHCO3, 10 mM glucose, 100 μM ascorbic acid, […] leupeptin, 0.2 mM PMSF, 25 μg/ml pepstatin A and 0.01 U/ml soybean trypsin inhibitor (pH 7.4). We incubated ˜20 mg of tissue with Krebs-Ringer solution containing either 200 ng/ml GST fusion protein or a mixture of neuregulin-1α-GST and neuregulin-1β-GST (200 ng/ml each), at 37° C. for 30 min. During stimulation, the incubation mixture was aerated with 95% O2, 5% CO2 every 10 min for 1 min. Ligand stimulation was terminated by adding of 1 ml ice-cold Ca^2+-free Krebs-Ringer solution containing 0.5 mM EGTA. Tissue slices were harvested by a brief centrifugation and homogenized in 0.25 ml ice-cold immunoprecipitation buffer (same make-up as homogenization buffer described above). The homogenates was centrifuged at 800 g for 10 min and the supernatant sonicated for 10 s. The proteins were solubilized in 0.5% digitonin, 0.2% sodium cholate and 0.5% NP-40 for 60 min. Lysates were cleared by centrifugation at 50,000 g for 5 min and diluted with 0.75 ml of immunoprecipitation buffer. Protein concentrations were determined using the Bradford method (Bio-Rad). […]

Entries after “also recorded” stand apart in the source; their conditions may differ.

T1 sequence (Q15303 26-1308): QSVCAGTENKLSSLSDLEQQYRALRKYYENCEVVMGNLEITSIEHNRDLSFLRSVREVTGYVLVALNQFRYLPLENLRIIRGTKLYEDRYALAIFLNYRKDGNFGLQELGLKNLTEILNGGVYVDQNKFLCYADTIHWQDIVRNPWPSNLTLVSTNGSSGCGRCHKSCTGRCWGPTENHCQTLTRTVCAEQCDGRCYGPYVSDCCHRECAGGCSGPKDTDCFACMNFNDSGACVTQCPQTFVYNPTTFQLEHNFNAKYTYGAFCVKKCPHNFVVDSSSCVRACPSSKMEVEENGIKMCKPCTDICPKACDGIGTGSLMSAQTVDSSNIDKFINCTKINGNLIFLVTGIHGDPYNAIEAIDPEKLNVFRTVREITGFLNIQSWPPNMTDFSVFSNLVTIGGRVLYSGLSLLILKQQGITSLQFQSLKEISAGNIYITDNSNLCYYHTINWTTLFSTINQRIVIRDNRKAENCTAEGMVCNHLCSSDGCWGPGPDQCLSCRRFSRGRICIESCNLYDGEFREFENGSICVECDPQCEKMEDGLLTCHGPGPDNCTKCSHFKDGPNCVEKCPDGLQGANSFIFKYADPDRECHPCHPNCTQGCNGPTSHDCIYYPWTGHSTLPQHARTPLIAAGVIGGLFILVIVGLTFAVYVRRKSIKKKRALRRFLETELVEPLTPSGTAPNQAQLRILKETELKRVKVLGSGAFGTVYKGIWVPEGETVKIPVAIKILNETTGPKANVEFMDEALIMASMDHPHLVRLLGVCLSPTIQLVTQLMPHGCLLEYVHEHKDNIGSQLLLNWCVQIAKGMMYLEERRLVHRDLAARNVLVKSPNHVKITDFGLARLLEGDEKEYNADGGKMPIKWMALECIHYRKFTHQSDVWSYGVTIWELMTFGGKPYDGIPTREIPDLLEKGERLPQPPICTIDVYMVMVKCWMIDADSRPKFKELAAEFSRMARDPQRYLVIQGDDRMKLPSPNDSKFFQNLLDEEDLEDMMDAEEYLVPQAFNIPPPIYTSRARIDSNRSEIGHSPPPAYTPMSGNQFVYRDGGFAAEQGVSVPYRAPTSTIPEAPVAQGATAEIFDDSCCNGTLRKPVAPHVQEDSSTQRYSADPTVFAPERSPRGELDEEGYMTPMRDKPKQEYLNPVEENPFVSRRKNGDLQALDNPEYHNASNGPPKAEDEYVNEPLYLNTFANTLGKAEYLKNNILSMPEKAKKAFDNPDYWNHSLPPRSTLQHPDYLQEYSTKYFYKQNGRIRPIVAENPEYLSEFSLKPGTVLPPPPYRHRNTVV

With `O=C(CCCN1CCC(O)(c2ccc(Cl)cc2)CC1)c1ccc(F)cc1` [haloperidol], the concentration at 12 weeks in data set [1] came out at 3.1 ng/mL. In addition, the “NRG1-induced erbB4 activation (pY-erbB4 over erbB4), haloperidol treated vs vehicle mice” value in data set [2] is recorded as “significantly reduced; also recorded: attenuated”.

Turning to `CN[C@H](CC(=O)O)C(=O)O` [NMDA, N-methyl-Daspartate], the “tyrosine phosphorylation of erbB4” value in data set [3] is on record as “did not enhance”.

B1: BDNF: another trophic factor for a different tyrosine kinase receptor (protein, UniProt P23560 19-247, looked up)
Neurotrophic factor BDNF …: APMKEANIRGQGGLAYPGVRTHGTLESVNGPKAGSRGLTSLADTFEHVIEELLDEDQKVRPNEENNKDADLYTSRVMLSSQVPLEPPLLFLLEEYKNYLDAANMSMRVRRHSDPARRGELSVCDSISEWVTAADKKTAVDMSGGTVTVLEKVPVSKGQLKQYFYETKCNPMGYTKEGCRGIDKRHWNSQCRTTQSYVRALTMDSKKRIGWRFIRIDTSCVCTLTIKRGR
As to B1, the “tyrosine phosphorylation of erbB4” value in data set [3] is listed as “Neither enhanced”.
